These are literature values, as cited in patent US11008566B2, “Method for obtaining antibody” (Chiome Bioscience Inc., priority 2016, dated 2021).

The conditions of this data set: antibody drugs, Non Patent Literatures 1 and 2.

For “Lucentis: antibody drug (registered trademark), high-affinity antibody”, the Kd is 0.046 nM.
